Laboratory results published in patent publication US9661854B2, “Molecules having pesticidal utility, and intermediates, compositions, and processes, related thereto” (Dow AgroSciences LLC, priority 2015, dated 2017).

How the values were obtained:
Type in all cases: in vivo
[1] = test system: Beet Armyworm (Spodoptera exigua, LAPHEG); assay: Bioassay on Beet Armyworm (BAW), 128-well diet tray assay; conditions: 168 h, 50 μg/cm^2 on artificial diet, second instar larvae, 25° C., five to seven days, average of eight wells, read-out: BAW % Control (or Mortality) rating
Outline: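 Second-instar larvae, one to five per well, fed artificial diet surface-treated with 50 μg/cm^2 test molecule in 90:10 acetone-water, dried before infestation; eight wells per molecule. Held at 25 °C, 14:10 light-dark for five to seven days; percent mortality averaged over wells.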

[2] = test system: Cabbage Looper (Trichoplusia ni, TRIPNI); assay: Bioassay on Cabbage Looper (CL), 128-well diet tray assay; conditions: 168 h, 50 μg/cm^2 on artificial diet, second instar larvae, 25° C., five to seven days, average of eight wells, read-out: CL % Control (or Mortality) rating
Outline: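 Second-instar larvae (one to five per well) placed on artificial diet treated with 50 μg/cm^2 test molecule in 90:10 acetone-water, dried; eight wells per molecule. Held at 25° C., 14:10 light-dark, for five to seven days. Percent mortality scored per well and averaged over the eight wells.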

[3] = test system: Yellow Fever Mosquito (Aedes aegypti, AEDSAE); conditions: about 1 day-old larvae, master plate 4000 ppm solution diluted, room temperature, scored after 3 days
Protocol: Example B: Bioassays on Yellow Fever Mosquito (Aedes aegypti, AEDSAE (“YFM”)
Certain molecules disclosed in this document were tested against YFM using procedures described in the following paragraph. In the reporting of the results, the “YFM Rating Table” was used (See Table Section).
Master plates containing 400 μg of a molecule dissolved in 100 μL of dimethyl sulfoxide (DMSO) (equivalent to a 4000 ppm solution) are used. A master plate of assembled molecules contains 15 μL per well. To this plate, 135 μL of a 90:10 water/acetone mixture is added to each well. A robot (Biomek® NXP Laboratory Automation Workstation) is programmed to dispense 15 μL aspirations from the master plate into an empty 96-well shallow plate (“daughter” plate). There are 6 reps (“daughter” plates) created per master. The created “daughter” plates are then immediately infested with YFM larvae.
The day before plates are to be treated, mosquito eggs are placed in Millipore water containing liver powder to begin hatching (4 g into 400 mL). After the “daughter” plates are created using the robot, they are infested with 220 μL of the liver powder/larval mosquito mixture (about 1 day-old larvae). After plates are infested with mosquito larvae, a non-evaporative lid is used to cover the plate to reduce drying. Plates are held at room temperature for 3 days prior to grading. After 3 days, each well is observed and scored based on mortality. The results are indicated in the table entitled “Table ABC: Biological Results” (See Table Section).

Row | Compound | mortality at 50 µg/cm2 [1] [%] | mortality at 50 µg/cm2 [2] [%] | YFM % Control (or Mortality) rating [3]
1 | Cc1ccc(OC(C)(C)C)c(N2C(=O)CS/C2=N\C(=O)Nc2ccc(CCc3ncn(-c4ccc(OC(F)(F)F)cc4)n3)cc2)c1 [F14, (Z)-1-(3-(2-(tert-Butoxy)-5-methylphenyl)-4-oxothiazolidin-2-ylidene)-3-(4-(2-(1-(4-(trifluoromethoxy)phenyl)-1H-1,2,4-triazol-3-yl)ethyl)phenyl)urea] | 50 to 100 | 50 to 100 | A (80-100)
2 | Cc1ccc(C(C)C)c(N2C(=O)CS/C2=N\C(=O)Nc2ccc(CC(C)c3ncn(-c4ccc(OC(F)(F)F)cc4)n3)cc2)c1 (stereo not drawn) [F15, (Z)-1-(3-(2-Isopropyl-5-methylphenyl)-4-oxothiazolidin-2-ylidene)-3-(4-(2-(1-(4-(trifluoromethoxy)phenyl)-1H-1,2,4-triazol-3-yl)propyl)phenyl)urea] | 50 to 100 | 50 to 100 | A (80-100)
3 | Cc1ccc(C(C)C)c(N2C(=O)CS/C2=N\C(=O)Nc2ccc(CCc3ncn(-c4ccc(OC(F)(F)F)cc4)n3)c(F)c2)c1 [F23, (Z)-1-(3-Fluoro-4-(2-(1-(4-(trifluoromethoxy)phenyl)-1H-1,2,4-triazol-3-yl)ethyl)phenyl)-3-(3-(2-isopropyl-5-methylphenyl)-4-oxothiazolidin-2-ylidene)urea] | 50 to 100 | 50 to 100 | A (80-100)
4 | CCCc1ccc(C)cc1N1C(=O)CS/C1=N\C(=O)Nc1ccc(CCc2ncn(-c3ccc(OC(F)(F)F)cc3)n2)cc1F [F26, (Z)-1-(2-Fluoro-4-(2-(1-(4-(trifluoromethoxy)phenyl)-1H-1,2,4-triazol-3-yl)ethyl)phenyl)-3-(3-(5-methyl-2-propylphenyl)-4-oxothiazolidin-2-ylidene)urea] | 50 to 100 | 50 to 100 | A (80-100)
5 | Cc1ccc(C(C)C)c(N2C(=O)CS/C2=N\C(=O)Nc2ccc(/C=C/c3ncn(-c4ccc(OC(F)(F)F)cc4)n3)cc2C(F)(F)F)c1 [F62, 1-((Z)-3-(2-isopropyl-5-methylphenyl)-4-oxothiazolidin-2-ylidene)-3-(4-((E)-2-(1-(4-(trifluoromethoxy)phenyl)-1H-1,2,4-triazol-3-yl)vinyl)-2-(trifluoromethyl)phenyl)urea] | 50 to 100 | 50 to 100 | –
6 | CCCc1ccc(C)cc1N1C(=O)CS/C1=N\C(=O)Nc1ccc(/C=C/c2ncn(-c3ccc(OC(F)(F)F)cc3)n2)cc1F [F63, 1-(2-Fluoro-4-((E)-2-(1-(4-(trifluoromethoxy)phenyl)-1H-1,2,4-triazol-3-yl)vinyl)phenyl)-3-((Z)-3-(5-methyl-2-propylphenyl)-4-oxothiazolidin-2-ylidene)urea] | 50 to 100 | 50 to 100 | –
7 | CC(C)c1ccc(C(F)(F)F)cc1N1C(=O)CS/C1=N\C(=O)Nc1ccc(/C=C/c2ncn(-c3ccc(OC(F)(F)F)cc3)n2)cc1F [F64, 1-(2-fluoro-4-((E)-2-(1-(4-(trifluoromethoxy)phenyl)-1H-1,2,4-triazol-3-yl)vinyl)phenyl)-3-((Z)-3-(2-isopropyl-5-(trifluoromethyl)phenyl)-4-oxothiazolidin-2-ylidene)urea] | 50 to 100 | 50 to 100 | –
8 | CC(C)c1ccc(C(F)(F)F)cc1N1C(=O)CS/C1=N\C(=O)Nc1ccc(/C=C/c2ncn(-c3ccc(OC(F)(F)F)cc3)n2)cc1 [F65, 1-((Z)-3-(2-isopropyl-5-(trifluoromethyl)phenyl)-4-oxothiazolidin-2-ylidene)-3-(4-((E)-2-(1-(4-(trifluoromethoxy)phenyl)-1H-1,2,4-triazol-3-yl)vinyl)phenyl)urea] | 50 to 100 | 50 to 100 | –
9 | Cc1ccc(C2CC2(F)F)c(N2C(=O)CS/C2=N\C(=O)Nc2ccc(/C=C/c3ncn(-c4ccc(OC(F)(F)F)cc4)n3)cc2)c1 (stereo not drawn) [F66, 1-((Z)-3-(2-(2,2-Difluorocyclopropyl)-5-methylphenyl)-4-oxothiazolidin-2-ylidene)-3-(4-((E)-2-(1-(4-(trifluoromethoxy)phenyl)-1H-1,2,4-triazol-3-yl)vinyl)phenyl)urea] | 50 to 100 | 50 to 100 | –
10 | Cc1ccc(C2CC2(F)F)c(N2C(=O)CS/C2=N\C(=O)Nc2ccc(/C=C/c3ncn(-c4ccc(OC(F)(F)F)cc4)n3)cc2F)c1 (stereo not drawn) [F67, 1-((Z)-3-(2-(2,2-difluorocyclopropyl)-5-methylphenyl)-4-oxothiazolidin-2-ylidene)-3-(2-fluoro-4-((E)-2-(1-(4-(trifluoromethoxy)phenyl)-1H-1,2,4-triazol-3-yl)vinyl)phenyl)urea] | 50 to 100 | 50 to 100 | –
11 | COCc1ccc(C)cc1N1C(=O)CS/C1=N\C(=O)Nc1c(F)cc(/C=C/c2ncn(-c3ccc(OC(F)(F)F)cc3)n2)cc1F [F68, 1-(2,6-Difluoro-4-((E)-2-(1-(4-(trifluoromethoxy)phenyl)-1H-1,2,4-triazol-3-yl)vinyl)phenyl)-3-((Z)-3-(2-(methoxymethyl)-5-methylphenyl)-4-oxothiazolidin-2-ylidene)urea] | 50 to 100 | 50 to 100 | –
12 | Cc1ccc(C(C)C)c(N2C(=O)CS/C2=N\C(=O)Nc2ccc(/C=C/c3ncn(-c4ccc(OC(F)(F)F)cn4)n3)cc2)c1 [F69, 1-((Z)-3-(2-isopropyl-5-methylphenyl)-4-oxothiazolidin-2-ylidene)-3-(4-((E)-2-(1-(5-(trifluoromethoxy)pyridin-2-yl)-1H-1,2,4-triazol-3-yl)vinyl)phenyl)urea] | 50 to 100 | 50 to 100 | –
13 | Cc1ccc(C(C)C)c(N2C(=O)CS/C2=N\C(=O)Nc2ccc(/C=C/c3ncn(-c4ccc(OC(F)(F)F)cc4)n3)cn2)c1 [F70, 1-((Z)-3-(2-isopropyl-5-methylphenyl)-4-oxothiazolidin-2-ylidene)-3-(5-((E)-2-(1-(4-(trifluoromethoxy)phenyl)-1H-1,2,4-triazol-3-yl)vinyl)pyridin-2-yl)urea] | 50 to 100 | 50 to 100 | –
14 | Cc1ccc(C(C)C)c(N2C(=O)CS/C2=N\C(=O)Nc2ccc(/C=C/c3ncn(-c4ccc(OC(F)(F)F)cn4)n3)cn2)c1 [F71, 1-((Z)-3-(2-isopropyl-5-methylphenyl)-4-oxothiazolidin-2-ylidene)-3-(5-((E)-2-(1-(5-(trifluoromethoxy)pyridin-2-yl)-1H-1,2,4-triazol-3-yl)vinyl)pyridin-2-yl)urea] | 50 to 100 | 50 to 100 | –
15 | Cc1ccc(C(C)C)c(N2C(=O)CS/C2=N\C(=O)Nc2ccc(/C=C/c3ncn(-c4ncc(C(F)(F)F)cc4Cl)n3)cc2)c1 [F72, 1-(4-((E)-2-(1-(3-chloro-5-(trifluoromethyl)pyridin-2-yl)-1H-1,2,4-triazol-3-yl)vinyl)phenyl)-3-((Z)-3-(2-isopropyl-5-methylphenyl)-4-oxothiazolidin-2-ylidene)urea] | 50 to 100 | 50 to 100 | –
16 | Cc1ccc(C(C)C)c(N2C(=O)CS/C2=N\C(=O)Nc2ccc(C3CC3c3ncn(-c4ccc(OC(F)(F)F)cc4)n3)cc2)c1 (stereo not drawn) [F73, (Z)-1-(3-(2-Isopropyl-5-methylphenyl)-4-oxothiazolidin-2-ylidene)-3-(4-(2-(1-(4-(trifluoromethoxy)phenyl)-1H-1,2,4-triazol-3-yl)cyclopropyl)phenyl)urea] | 50 to 100 | 50 to 100 | –
17 | Cc1ccc(C(C)C)c(N2C(=O)CS/C2=N\C(=O)Nc2ccc(CCc3ncn(-c4ccc(OC(F)(F)F)cn4)n3)cc2)c1 [F74, (Z)-1-(3-(2-Isopropyl-5-methylphenyl)-4-oxothiazolidin-2-ylidene)-3-(4-(2-(1-(5-(trifluoromethoxy)pyridin-2-yl)-1H-1,2,4-triazol-3-yl)ethyl)phenyl)urea] | 50 to 100 | 50 to 100 | –
18 | O=C(/N=C1\SCC(=O)N1c1cccnc1)Nc1ccc(CCc2ncn(-c3ccc(OC(F)(F)F)cc3)n2)cc1 [F75, (Z)-1-(4-Oxo-3-(pyridin-3-yl)thiazolidin-2-ylidene)-3-(4-(2-(1-(4-(trifluoromethoxy)phenyl)-1H-1,2,4-triazol-3-yl)ethyl)phenyl)urea] | 50 to 100 | 50 to 100 | –
19 | O=C(/N=C1\SCC(=O)N1C1CCCCC1)Nc1ccc(/C=C/c2ncn(-c3ccc(OC(F)(F)F)cc3)n2)cc1F [F78, 1-((Z)-3-Cyclohexyl-4-oxothiazolidin-2-ylidene)-3-(2-fluoro-4-((E)-2-(1-(4-(trifluoromethoxy)phenyl)-1H-1,2,4-triazol-3-yl)vinyl)phenyl)urea] | 50 to 100 | 50 to 100 | –
